In ChEMBL document CHEMBL1800027, “Imidazolopiperazines: hit to lead optimization of new antimalarial agents” (J Med Chem, 2011):
Blank lines part the entries; values can stand above or below the compound they belong to.

What was measured:
[1] = tested on: Plasmodium falciparum; assay: Antimalarial activity against Plasmodium falciparum 3D7 infected in human erythrocytes assessed as decrease in parasitemia after 72 hrs; type: functional, organism-based; details: 3D7, 72 h
[2] = tested on: Plasmodium falciparum; assay: Antimalarial activity against Plasmodium falciparum W2 infected in human erythrocytes assessed as decrease in parasitemia after 72 hrs; type: functional, organism-based; details: W2, 72 h
[3] = tested on: Plasmodium berghei; assay: Antimalarial activity against GFP-tagged Plasmodium berghei ANKA infected in NMRI mouse assessed as reduction in parasitemia at 30 mg/kg, po administered as single dose 24 hrs post infection measured 72 hrs post infection; type: functional; design: scale not given: the % may be the effect or the level left
[4] = tested on: Plasmodium berghei; assay: Antimalarial activity against GFP-tagged Plasmodium berghei ANKA infected in NMRI mouse assessed as reduction in parasitemia at 30 mg/kg, po QD administered 24 hrs post infection for 3 days measured on day 4 post infection; type: functional; design: scale not given: the % may be the effect or the level left
[5] = target: Voltage-gated inwardly rectifying potassium channel KCNH2 (Homo sapiens, UniProt Q12809)
Description: Inhibition of human ERG expressed in CHO cells by Q-patch assay

[6] = pampa
Description: Permeability of the compound assessed as amount of compound absorbed by PAMPA method

[7] = in vivo; details: female, CD1, mouse, iv, 5 mg/kg
Description: Volume of distribution in female CD1 mouse at 5 mg/kg, iv by LC/MS/MS analysis

[8] = in vivo; details: female, CD1, mouse, iv, 5 mg/kg; remark: listed apart in the source
Description: Clearance in female CD1 mouse at 5 mg/kg, iv by LC/MS/MS analysis

[9] = in vivo; details: female, CD1, mouse, iv, 5 mg/kg; remark: listed apart in the source
Description: Half-life in female CD1 mouse at 5 mg/kg, iv by LC/MS/MS analysis

[10] = in vivo; details: female, CD1, mouse, plasma, iv, 5 mg/kg
[11] = in vivo; details: female, CD1, mouse, plasma, po, 30 mg/kg
[12] = in vivo; details: female, CD1, mouse, po, 30 mg/kg
Description: Half life in female CD1 mouse at 20 mg/kg, po by LC/MS/MS analysis

[13] = in vitro; details: human, Caco-2
Description: Apparent permeability from apical to basolateral side in human Caco2 cells by LC/MS analysis

[14] = in vitro; details: human, Caco-2; remark: listed apart in the source
Description: Apparent permeability from basolateral to apical side in human Caco2 cells by LC/MS analysis

[15] = in vitro; details: mouse, microsomes
Description: Metabolic stability in mouse hepatic microsomes assessed as extraction ratio by LC/MS/MS analysis

[16] = in vitro; details: rat, microsomes
Description: Metabolic stability in rat hepatic microsomes assessed as extraction ratio by LC/MS/MS analysis

[17] = in vitro; details: human, microsomes
Description: Metabolic stability in human hepatic microsomes assessed as extraction ratio by LC/MS/MS analysis

[18] = Cmax in female CD1 mouse at 30 mg/kg, po by LC/MS/MS analysis; details: in vivo
[19] = Tmax in female CD1 mouse at 30 mg/kg, po by LC/MS/MS analysis; details: in vivo
[20] = tested on: Mus musculus; assay: Oral bioavailability in female CD1 mouse at 30 mg/kg by LC/MS/MS analysis; details: mouse, in vivo
[21] = tested on: Plasmodium berghei; assay: Antimalarial activity against GFP-tagged Plasmodium berghei ANKA infected in NMRI mouse assessed as mouse survival at 30 mg/kg, po administered as single dose 24 hrs post infection measured 72 hrs post infection
[22] = tested on: Plasmodium berghei; assay: Antimalarial activity against GFP-tagged Plasmodium berghei ANKA infected in NMRI mouse assessed as mouse survival at 100 mg/kg, po administered as single dose 24 hrs post infection measured on day 30 post infection
[23] = Cmax in po dosed mouse; type: ADME, organism-based; design: route oral; details: in vivo
[24] = Cytotoxicity against human HuH7 cells; type: cell-based; details: Huh-7 cells, read-out: TC50 (the source's name)
[25] = Selectivity index, ratio TC50 for human HuH7 cells to IC50 for Plasmodium falciparum; type: functional, Huh-7
[26] = Selectivity index, ratio TC50 for human HeLa cells to IC50 for Plasmodium falciparum; type: functional
[27] = Aqueous solubility of the compound at pH 6.8; type: physicochemical; details: buffer
[28] = target: T1, Cytochrome P450 1A2 (Homo sapiens, UniProt P05177); assay: Inhibition of CYP 1A2; type: ADME
T1 sequence (P05177 whole entry): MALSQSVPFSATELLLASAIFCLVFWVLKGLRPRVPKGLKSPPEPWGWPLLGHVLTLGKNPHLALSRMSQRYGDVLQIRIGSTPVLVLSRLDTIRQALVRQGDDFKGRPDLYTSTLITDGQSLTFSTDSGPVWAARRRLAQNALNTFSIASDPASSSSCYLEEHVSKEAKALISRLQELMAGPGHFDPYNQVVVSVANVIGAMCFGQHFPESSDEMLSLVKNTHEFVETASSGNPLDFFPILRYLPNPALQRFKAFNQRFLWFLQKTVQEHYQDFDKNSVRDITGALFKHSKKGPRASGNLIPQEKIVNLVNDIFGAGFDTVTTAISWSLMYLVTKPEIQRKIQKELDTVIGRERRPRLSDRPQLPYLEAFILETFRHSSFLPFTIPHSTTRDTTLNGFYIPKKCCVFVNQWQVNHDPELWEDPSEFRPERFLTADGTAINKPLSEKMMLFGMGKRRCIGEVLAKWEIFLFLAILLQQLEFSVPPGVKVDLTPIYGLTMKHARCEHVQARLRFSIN

[29] = target: Cytochrome P450 2C19 (Homo sapiens, UniProt P33261); assay: Inhibition of CYP 2C19; type: ADME
[30] = target: Cytochrome P450 2C9 (Homo sapiens, UniProt P11712); assay: Inhibition of CYP 2C9; type: ADME
[31] = target: Cytochrome P450 2D6 (Homo sapiens, UniProt P10635); assay: Inhibition of CYP 2D6; type: ADME
[32] = target: Cytochrome P450 3A4 (Homo sapiens, UniProt P08684); assay: Inhibition of CYP 3A4; type: ADME
Chain of Cytochrome P450 3A4 (P08684 whole entry): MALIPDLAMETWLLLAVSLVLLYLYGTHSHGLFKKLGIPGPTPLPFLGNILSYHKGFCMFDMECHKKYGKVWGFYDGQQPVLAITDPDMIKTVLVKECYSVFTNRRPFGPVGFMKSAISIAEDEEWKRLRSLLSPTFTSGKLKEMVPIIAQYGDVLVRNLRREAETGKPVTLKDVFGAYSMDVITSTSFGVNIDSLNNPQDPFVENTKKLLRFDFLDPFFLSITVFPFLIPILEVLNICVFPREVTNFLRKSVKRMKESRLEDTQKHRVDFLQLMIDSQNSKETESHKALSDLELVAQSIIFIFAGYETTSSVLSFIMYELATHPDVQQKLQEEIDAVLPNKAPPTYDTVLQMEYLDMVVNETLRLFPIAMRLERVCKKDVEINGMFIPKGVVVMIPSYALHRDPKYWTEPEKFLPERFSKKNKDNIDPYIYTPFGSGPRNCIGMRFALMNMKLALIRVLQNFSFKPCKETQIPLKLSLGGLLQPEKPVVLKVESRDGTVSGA

Chain of Voltage-gated inwardly rectifying potassium channel KCNH2 (Q12809 whole entry): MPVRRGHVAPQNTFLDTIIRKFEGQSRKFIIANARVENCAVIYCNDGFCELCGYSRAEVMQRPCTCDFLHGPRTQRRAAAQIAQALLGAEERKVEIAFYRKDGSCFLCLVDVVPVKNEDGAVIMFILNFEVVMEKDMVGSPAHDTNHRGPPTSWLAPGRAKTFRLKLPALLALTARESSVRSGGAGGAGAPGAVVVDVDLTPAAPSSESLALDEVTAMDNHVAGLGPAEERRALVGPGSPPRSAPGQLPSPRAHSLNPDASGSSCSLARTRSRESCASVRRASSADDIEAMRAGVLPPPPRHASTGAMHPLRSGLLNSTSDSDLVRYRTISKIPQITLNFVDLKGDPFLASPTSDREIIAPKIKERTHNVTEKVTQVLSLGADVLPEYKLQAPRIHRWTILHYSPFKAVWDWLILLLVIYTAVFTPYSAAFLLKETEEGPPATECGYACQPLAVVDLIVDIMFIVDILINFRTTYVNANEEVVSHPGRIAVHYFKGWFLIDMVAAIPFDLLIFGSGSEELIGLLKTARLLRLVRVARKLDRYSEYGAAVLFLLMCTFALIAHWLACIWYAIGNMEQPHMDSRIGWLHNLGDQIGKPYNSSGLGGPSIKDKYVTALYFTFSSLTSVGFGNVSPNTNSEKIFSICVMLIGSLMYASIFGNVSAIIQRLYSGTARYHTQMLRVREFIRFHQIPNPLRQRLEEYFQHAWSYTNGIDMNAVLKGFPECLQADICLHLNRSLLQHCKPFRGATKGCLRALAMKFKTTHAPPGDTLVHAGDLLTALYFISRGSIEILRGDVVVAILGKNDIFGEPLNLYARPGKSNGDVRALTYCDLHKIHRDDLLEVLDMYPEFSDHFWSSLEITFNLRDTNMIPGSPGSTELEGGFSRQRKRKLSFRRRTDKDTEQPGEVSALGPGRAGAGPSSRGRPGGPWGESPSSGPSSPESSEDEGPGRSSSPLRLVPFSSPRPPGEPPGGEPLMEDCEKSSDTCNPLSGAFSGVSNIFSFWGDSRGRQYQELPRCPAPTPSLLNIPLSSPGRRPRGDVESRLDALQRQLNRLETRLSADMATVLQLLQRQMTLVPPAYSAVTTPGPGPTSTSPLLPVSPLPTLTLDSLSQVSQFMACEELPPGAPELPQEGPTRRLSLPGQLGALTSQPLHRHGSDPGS
Chain of Cytochrome P450 2C9 (P11712 whole entry): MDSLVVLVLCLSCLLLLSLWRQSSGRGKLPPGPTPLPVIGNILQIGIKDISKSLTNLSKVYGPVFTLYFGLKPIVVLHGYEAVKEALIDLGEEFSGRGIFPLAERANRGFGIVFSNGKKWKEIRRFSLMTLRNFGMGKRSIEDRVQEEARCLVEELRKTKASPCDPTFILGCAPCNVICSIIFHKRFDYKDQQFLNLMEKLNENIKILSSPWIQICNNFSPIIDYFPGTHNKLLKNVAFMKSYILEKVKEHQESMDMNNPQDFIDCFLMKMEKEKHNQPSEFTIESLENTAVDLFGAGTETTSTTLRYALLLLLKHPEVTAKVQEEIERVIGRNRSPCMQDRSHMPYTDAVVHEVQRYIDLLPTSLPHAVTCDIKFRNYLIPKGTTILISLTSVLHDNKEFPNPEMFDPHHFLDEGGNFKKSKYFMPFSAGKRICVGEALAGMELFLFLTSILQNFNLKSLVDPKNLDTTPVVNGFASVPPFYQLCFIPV
Chain of Cytochrome P450 2C19 (P33261 whole entry): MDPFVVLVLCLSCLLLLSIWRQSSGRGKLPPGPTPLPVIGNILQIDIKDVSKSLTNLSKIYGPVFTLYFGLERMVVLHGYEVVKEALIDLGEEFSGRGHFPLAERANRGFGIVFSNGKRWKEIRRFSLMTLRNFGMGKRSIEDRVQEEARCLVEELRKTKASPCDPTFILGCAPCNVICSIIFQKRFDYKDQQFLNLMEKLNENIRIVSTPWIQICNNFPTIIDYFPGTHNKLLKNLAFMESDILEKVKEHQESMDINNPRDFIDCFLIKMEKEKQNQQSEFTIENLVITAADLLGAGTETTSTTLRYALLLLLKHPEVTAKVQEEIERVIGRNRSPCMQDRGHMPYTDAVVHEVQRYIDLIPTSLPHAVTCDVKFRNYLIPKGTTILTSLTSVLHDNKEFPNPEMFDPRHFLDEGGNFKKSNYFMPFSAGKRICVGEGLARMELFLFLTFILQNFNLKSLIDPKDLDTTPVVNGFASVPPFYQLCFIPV
Chain of Cytochrome P450 2D6 (P10635 whole entry): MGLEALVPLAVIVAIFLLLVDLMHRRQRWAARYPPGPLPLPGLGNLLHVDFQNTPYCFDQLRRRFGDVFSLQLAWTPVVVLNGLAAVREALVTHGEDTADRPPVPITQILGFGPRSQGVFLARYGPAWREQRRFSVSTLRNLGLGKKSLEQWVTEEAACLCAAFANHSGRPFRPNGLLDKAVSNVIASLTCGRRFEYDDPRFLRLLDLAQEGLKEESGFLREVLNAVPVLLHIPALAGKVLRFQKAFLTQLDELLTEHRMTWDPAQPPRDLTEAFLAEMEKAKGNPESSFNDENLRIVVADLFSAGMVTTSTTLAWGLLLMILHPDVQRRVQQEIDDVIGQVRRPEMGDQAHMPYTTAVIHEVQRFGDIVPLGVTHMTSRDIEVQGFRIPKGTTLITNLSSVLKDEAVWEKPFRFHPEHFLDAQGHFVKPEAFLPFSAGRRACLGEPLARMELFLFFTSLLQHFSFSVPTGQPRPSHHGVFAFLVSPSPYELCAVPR

Compound: CC(C)(N)C(=O)N1CCn2c(nc(-c3ccc(F)cc3)c2Nc2ccc(Cl)cc2)C1
- IC50 [1]: 30 nM
- IC50 [2]: 24 nM
- Activity [3]: 98%
- Activity [4]: 99.5%
- IC50 [5]: 2300 nM
- permeability [6]: 89%
- Vd [7]: 40.5 L/kg
- clearance [8]: 65.2 mL/min/kg
- half-life [9]: 8.7 h
- AUC(0-inf) [10]: 2.98 µM·h
- AUC(0-inf) [11]: 28.3 µM·h
- half-life [12]: 37.6 h
- Papp A→B [13]: 1.46 ×10⁻⁶ cm/s
- Papp B→A [14]: 1.86 ×10⁻⁶ cm/s
- hepatic extraction ratio [15]: 0.17
- hepatic extraction ratio [16]: 0.43
- hepatic extraction ratio [17]: 0.54
- Cmax [18]: 749 nM
- Tmax [19]: 1 h
- F [20]: 158%
- Survival [21]: 6 days
- Survival [22]: 13 days

- Cmax [23]: 320 nM
- IC50 [1]: 63 nM
- IC50 [2]: 97 nM
- solubility [27]: > 175 µM
- IC50 [28]: > 10000 nM
- IC50 [29]: > 10000 nM
- IC50 [30]: > 10000 nM
- IC50 [31]: > 10000 nM
- IC50 [32]: > 10000 nM
Compound: NCC(=O)N1CCn2c(nc(-c3ccccc3)c2Nc2ccc3c(c2)OCO3)C1
- CC50 [24]: > 10000 nM
- Selectivity Index [25]: >20
- Selectivity Index [26]: >20
- IC50 [5]: 19000 nM
